Results: publication PMC9656735, “Eight Indole Alkaloids from the Roots of Maerua siamensis and Their Nitric Oxide Inhibitory Effects” (Molecules, 2022)
Like-named read-outs stand apart in the source and are kept apart here.

Legend:
[1] = test system: nitric oxide (NO) production in LPS-induced RAW 264.7 cells; experiment: Inhibition of nitric oxide production in LPS-induced RAW 264.7 cells (Griess reagent); assay type: cell-based; conditions: for IC50: Mus musculus; for nitric oxide inhibition activity compared with indomethacin: in words
Procedure: (§1) The compounds were dissolved in DMSO to prepare their stock solutions at a concentration of 50 mM. Then, they were pipetted to mix in the culture medium to make the maximum tested concentration of 200 µM containing 0.4% DMSO. Then, the 200 µM tested solution was further diluted with a culture medium, giving the concentration series of 200, 100, 50, and 25 μM (2-fold dilution). The working concentrations of the test compounds [25, 50, 100, and 200 μM] were used to treat cells.
(§2) Raw264.7 cells were seeded at a density of 5 × 10^4 cells/well in a 96-well plate. The cells were pre-treated with various concentrations of samples for 24 h. Cells were induced with 100 ng/mL LPS for 24 h. The culture supernatant was collected for NO production analysis, and cells were further examined for their viability.
The NO production was measured using a Griess reagent kit (Invitrogen, Thermo Fisher Scientific, Waltham, MA, USA). Ninety µL of culture media were mixed with 10 µL of Griess reagent and incubated at room temperature for 30 min, and then the NO concentration was measured at 540 nm using the microplate reader. The percentage of NO production was calculated as Equation (1). (1) %NO production = A/B × 100
A: The concentration of the nitric oxide in the cells induced by LPS and with sample pre-treatment [LPS (+), sample (+)].
B: The concentration of nitric oxide in the cells induced by LPS without sample pre-treatment [LPS (+), sample (−)].
The NO inhibitory activity was expressed as half the maximum (IC50) of the inhibitory concentration calculated using GraphPad Prism 9.

[2] = test system: RAW 264.7 cells; experiment: Cytotoxicity / cell viability by MTT assay in LPS-induced RAW 264.7 cells; assay type: cell-based; conditions: for Cytotoxicity: MTT, concentration at which cell viability was lower than 80%, maximum concentration 200 μM
Procedure: as §1, §2
The cell viability was measured by the MTT assay. An MTT solution (1 mg/mL) was added to each well and incubated for 4 h at 37 °C. Then, the MTT solution was removed, and the formazan production was dissolved with DMSO. The absorbance was measured at 570 nm using a microplate reader (BioTeK, Santa Clara, CA, USA).

[3] = test system: NO; design: method as in PMID 32163787; conditions: read-out: NO inhibitory activity IC50; cited from earlier work
[4] = RAW264.7, pre-treated 24 h, then 100 ng/mL LPS 24 h, Mean ± SD from three independent experiments, tested 25-200 μM, read-out: IC50 of NO Inhibition

| Compound | IC50 [1, 4] [µM] | IC50 ([1]; RAW264.7, above the 200 μM maximum tested concentration, Mean ± SD, read-out: IC50 of NO Inhibition (value in parentheses, above the maximum tested concentration)) [µM] | inhibition of nitric oxide production (in words) [1] | nitric oxide inhibition activity compared with indomethacin [1] | Cytotoxicity [2] | cytotoxicity (in words) ([2]; IC50 of NO inhibition could not be determined) | IC50 [3] [µM] |
| --- | --- | --- | --- | --- | --- | --- | --- |
| CO/N=C(/Cc1c[nH]c2cc(OC)ccc12)SC [Compound 3, methyl (Z)-N-methoxy-2-(6-methoxy-1H-indol-3-yl)ethanimidothioate] |  |  |  |  | toxicity at 100 μM |  |  |
| CO/N=C(\C=C1\C(=O)Nc2cc(OC)ccc21)SC [Compound 5, methyl (E)-N-methoxy-2-[(E)-6-methoxy-2-oxindolin-3-ylidene]ethanimidothiolate] | 92.2 ± 8.9 |  | inhibited nitric oxide production | stronger than indomethacin | >200 µM |  |  |
| COc1ccc2cc(C3=C(c4c[nH]c5cccc(OC)c45)N=C3SC)[nH]c2c1 [Compound 6, 4-methoxy-3-[3-(6-methoxy-1H-indol-2-yl)-2-(methylthio)azet-4-yl]-1H-indole] |  |  |  |  | toxicity at 100 μM | too cytotoxic |  |
| isatindigoside F |  |  |  |  |  |  | 70.3 ± 6.9 |
| isatindigoside G |  |  |  |  |  |  | 67.3 ± 5.5 |

The next lines start with results.

| IC50 [1, 4] [µM] | IC50 ([1]; RAW264.7, above the 200 μM maximum tested concentration, Mean ± SD, read-out: IC50 of NO Inhibition (value in parentheses, above the maximum tested concentration)) [µM] | Compound | inhibition of nitric oxide production (in words) [1] | nitric oxide inhibition activity compared with indomethacin [1] | Cytotoxicity [2] | cytotoxicity (in words) ([2]; IC50 of NO inhibition could not be determined) | IC50 [3] [µM] |
| --- | --- | --- | --- | --- | --- | --- | --- |
| 186 ± 22.5 |  | COc1ccc2c(c1)NC(=O)[C@]2(O)CC#N [Compound 1, (+)-(S)-2-(3-hydroxy-6-methoxy-2-oxoindolin-3-yl)acetonitrile] | inhibited nitric oxide production | as strong as indomethacin | >200 µM |  |  |
| 187 ± 23.1 |  | COc1ccc2c(CC#N)c([S+](C)[O-])[nH]c2c1 (stereo not drawn) [Compound 2, 2-(6-methoxy-2-(methylsulfinyl)-1H-indol-3-yl)acetonitrile] | inhibited nitric oxide production | as strong as indomethacin | >200 µM |  |  |
| > 200 | > 200 | CO/N=C(\SC)C(=O)c1c[nH]c2cc(OC)ccc12 [Compound 4, methyl (Z)-N-methoxy-2-(6-methoxy-1H-indol-3-yl)-2-oxoethanimidothioate] |  |  | >200 µM |  |  |
| 31.1 ± 1.8 |  | COc1ccc2cc(C3=C(c4c[nH]c5cccc(OC)c45)N=C3[S+](C)[O-])[nH]c2c1 (stereo not drawn) [Compound 7, 4-methoxy-3-[3-(6-methoxy-1H-indol-2-yl)-2-(methylsulfinyl)azet-4-yl]-1H-indole] | inhibited nitric oxide production | stronger than indomethacin | toxicity at 100 μM |  |  |
| 56.7 ± 3.8 |  | COc1cccc2[nH]c3c(C#N)c4c(cc3c12)[nH]c1cc(O)ccc14 [Compound 8, 9-hydroxy-1-methoxy-5,11-dihydroindolo[3,2-b]carbazole-6-carbonitrile] | inhibited nitric oxide production | stronger than indomethacin | >200 µM |  |  |
| 150 ± 16 |  | COc1ccc2c(c1)c(CC(=O)O)c(C)n2C(=O)c1ccc(Cl)cc1 [indomethacin, reference compound] |  |  | >200 µM |  |  |
